Reference: ChEMBL document CHEMBL1201862, “PubChem BioAssay data set” (2004)
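1) Cells in 96-well plates. 2) Compound, 48 h, 5 concentrations. 3) Linear interpolation between surrounding doses. 4) Unreached endpoint = highest concentration. GI50: concentration for 50% inhibition of growth.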 Calls of active or inactive are those of the source. Cut-off read from the data, not from the text of the source: active = GI50 up to about 1.1 µM and inactive = higher.

Assays:
Assay in all cases: inhibition of tumour cell growth, NCI panel, 48 h
SNB-78 = system: SNB-78
KM-20L2 = system: KM-20L2
DMS-273 = system: DMS-273
LXFL 529 = system: LXFL 529
XF498 = system: XF498
M19-MEL = system: M19-MEL
DLD-1 = system: DLD-1
HOP-18 = system: HOP-18
RXF 631 = system: RXF 631

SMILES | GI50 (SNB-78) | GI50 (KM-20L2) | GI50 (DMS-273) | GI50 (LXFL 529) | GI50 (XF498) | GI50 (M19-MEL) | GI50 (DLD-1) | GI50 (HOP-18) | GI50 (RXF 631)
O=Cc1cc2c(s1)C(=O)c1sccc1C2=O | 1.41 µM (inactive) | 2.1 µM (inactive) | 0.168 µM (active) | 0.2 µM (active) | 1.26 µM (inactive) | 0.0237 µM (active) | 0.351 µM (active) | 0.183 µM (active) | 
COc1cc2c(cc1OC)C(C#N)(Cc1ccccc1)N(C(=O)c1ccccc1)C=C2 (stereo not drawn) | > 100 µM (inactive) | 67.3 µM (inactive) | 60.7 µM (inactive) | 39.4 µM (inactive) | 8.15 µM (inactive) | 96.6 µM (inactive) |  | > 100 µM (inactive) | 45.3 µM (inactive)
OCCCc1cnco1 | > 100 µM (inactive) | > 100 µM (inactive) | > 100 µM (inactive) | > 100 µM (inactive) | > 100 µM (inactive) | > 100 µM (inactive) | > 100 µM (inactive) | > 100 µM (inactive) | 
CC(=O)NC(CCCCNC(=O)OCc1ccccc1)C(=O)NCc1ccccc1 (stereo not drawn) | 88.9 µM (inactive) | > 100 µM (inactive) | > 100 µM (inactive) | > 100 µM (inactive) | > 100 µM (inactive) | > 100 µM (inactive) | > 100 µM (inactive) |  | 
ClC1=C(Cl)C(Cl)(Cl)c2c3c(c4c(c21)C(Cl)(Cl)C(Cl)=C4Cl)C(Cl)(Cl)C(Cl)=C3Cl |  | > 100 µM (inactive) | > 100 µM (inactive) | > 100 µM (inactive) | > 100 µM (inactive) |  |  |  | 
CCOC(=O)/C(=C\c1ccc(O)c(OC)c1)C(=O)c1ccccc1 | 2.56 µM (inactive) | > 41.7 µM (inactive) |  | 10.6 µM (inactive) | 27.6 µM (inactive) | 20.8 µM (inactive) | 17.8 µM (inactive) | 38.9 µM (inactive) | 
CC(C)(C)c1ccc2c(c1)S(=O)(=O)Nc1ccccc1NS(=O)(=O)c1cc(C(C)(C)C)ccc1OCCOCCOCCO2 | 59.8 µM (inactive) |  | > 100 µM (inactive) |  |  | > 100 µM (inactive) | > 100 µM (inactive) | > 100 µM (inactive) | 97.3 µM (inactive)
CN(C)c1ccc(N=O)c(O)c1.CN(C)c1ccc(N=O)c(O)c1.[SiH4] |  | 4.65 µM (inactive) |  | 5.64 µM (inactive) | 9.4 µM (inactive) | 5.56 µM (inactive) | 8.28 µM (inactive) | 12.1 µM (inactive) | 
CS/C(=N/C(=O)c1ccccc1)SCCS/C(=N\C(=O)c1ccccc1)SC | 66.8 µM (inactive) | > 100 µM (inactive) | > 100 µM (inactive) | > 100 µM (inactive) | > 100 µM (inactive) | > 100 µM (inactive) | > 100 µM (inactive) |  | > 100 µM (inactive)
O=C1c2ccccc2C2(O)c3cc4ccccc4cc3OC12O (stereo not drawn) | 46.7 µM (inactive) | > 100 µM (inactive) | 46.8 µM (inactive) | 55.5 µM (inactive) |  | 47.2 µM (inactive) | > 100 µM (inactive) | 69.7 µM (inactive) | 
CCSc1nc(-c2ccc(OC)cc2)c(C#N)c(=O)n1C1OCC(OC(C)=O)C(OC(C)=O)C1OC(C)=O (stereo not drawn) | > 100 µM (inactive) | > 100 µM (inactive) | > 100 µM (inactive) | 44.6 µM (inactive) |  | > 100 µM (inactive) | > 100 µM (inactive) | 30 µM (inactive) | 
CC(C)c1cccc(C(C)C)c1N1C(=O)C(=O)C(c2nc3ccccc3o2)C(=O)C1=O | > 100 µM (inactive) | 79.1 µM (inactive) | 68.2 µM (inactive) | 42.2 µM (inactive) | 38.5 µM (inactive) | 63.4 µM (inactive) | 31.6 µM (inactive) |  | > 100 µM (inactive)
CC(=O)NN1C(=O)C(Cc2ccccc2)c2ccccc21 (stereo not drawn) | > 100 µM (inactive) | > 100 µM (inactive) | > 100 µM (inactive) |  | > 100 µM (inactive) | > 100 µM (inactive) | > 100 µM (inactive) | > 100 µM (inactive) | > 100 µM (inactive)
COc1ccc(C(=O)O/N=C2/CCC/C2=C\c2ccccc2)cc1 | > 68.5 µM (inactive) | > 100 µM (inactive) | > 100 µM (inactive) | > 100 µM (inactive) | > 100 µM (inactive) | > 100 µM (inactive) | > 100 µM (inactive) | > 100 µM (inactive) | > 100 µM (inactive)
Cc1ccc(Sc2cc([N+](=O)[O-])cc(Sc3ccc(C)cc3)c2Sc2ccc(C)cc2)cc1 | > 100 µM (inactive) | > 100 µM (inactive) | > 100 µM (inactive) | > 100 µM (inactive) | > 100 µM (inactive) | > 100 µM (inactive) | > 100 µM (inactive) |  | 
CC(=O)O[C@H]1CCC2[C@@H]3CCC4C(=O)c5oncc5C[C@]4(C)C3CC[C@@]21C (stereo partly drawn) | 49 µM (inactive) | > 100 µM (inactive) | > 100 µM (inactive) | > 100 µM (inactive) | > 100 µM (inactive) | > 100 µM (inactive) | > 100 µM (inactive) |  | 
CC(=O)OCC1OC(n2c(-c3ccc(N)cc3)cc(-c3ccco3)c(C#N)c2=O)C(OC(C)=O)C(OC(C)=O)C1OC(C)=O (stereo not drawn) | > 50 µM (inactive) | > 50 µM (inactive) | 5.26 µM (inactive) | 11.1 µM (inactive) |  | 18.7 µM (inactive) | > 50 µM (inactive) | > 50 µM (inactive) | 44.3 µM (inactive)
COC1=CC(O)(CC(N)=O)c2ccccc2C1=O (stereo not drawn) | > 100 µM (inactive) | > 100 µM (inactive) | > 100 µM (inactive) | > 100 µM (inactive) | > 100 µM (inactive) | > 100 µM (inactive) | > 100 µM (inactive) | > 100 µM (inactive) | > 100 µM (inactive)
O=C1CCCCC1CN1CCCC1 (stereo not drawn) | > 100 µM (inactive) | > 100 µM (inactive) | > 100 µM (inactive) | > 100 µM (inactive) | > 100 µM (inactive) | > 100 µM (inactive) | > 100 µM (inactive) |  | 
C=CCNC(=O)ON1C(=O)CCC1=O | > 100 µM (inactive) | > 100 µM (inactive) | > 100 µM (inactive) | > 100 µM (inactive) |  | > 100 µM (inactive) | > 100 µM (inactive) | > 100 µM (inactive) | 
COC(=O)C1=C(SC)SC2(C(=O)OC)C3C=C(C)C4C(N13)C42C(=O)OC (stereo not drawn) |  | > 100 µM (inactive) | > 100 µM (inactive) | > 100 µM (inactive) |  | > 100 µM (inactive) | > 100 µM (inactive) |  | 
Nc1ccc(C(=O)NN2C(=O)C(Cl)C2c2ccccc2)cc1 (stereo not drawn) | > 100 µM (inactive) | > 100 µM (inactive) | > 100 µM (inactive) | > 100 µM (inactive) | > 100 µM (inactive) | > 100 µM (inactive) | > 100 µM (inactive) |  | 
O=C(Cc1nc2ccccc2o1)C(=O)Nc1ccc(Cl)cc1Cl | > 100 µM (inactive) | > 100 µM (inactive) | > 100 µM (inactive) | > 100 µM (inactive) |  | > 100 µM (inactive) | > 100 µM (inactive) | > 100 µM (inactive) | 
COc1cc(/C=C2/C(=O)N(C(=O)OCc3ccccc3)C(Cc3cc(OC)c(OC)c(C)c3OC)C(=O)N2Cc2ccccc2)c(OC)c(C)c1OC (stereo not drawn) |  | > 100 µM (inactive) | 40.6 µM (inactive) | 9.42 µM (inactive) |  | 69.7 µM (inactive) | > 100 µM (inactive) | 95.3 µM (inactive) | > 100 µM (inactive)
Oc1ncc(N(CCCl)CCCl)c(O)n1 [URACIL MUSTARD] | 79.6 µM (inactive) | 69.5 µM (inactive) | 4.55 µM (inactive) | 71.4 µM (inactive) | 23 µM (inactive) | 63.2 µM (inactive) | 78.3 µM (inactive) | 51.6 µM (inactive) | 
N/C(=N\O)N/N=C\c1c2ccccc2c(Cl)c2ccccc12 | 12 µM (inactive) | 2.02 µM (inactive) | 1.98 µM (inactive) |  | 16.8 µM (inactive) | 6.61 µM (inactive) | 5.79 µM (inactive) | 2.45 µM (inactive) | 
O=C(NCc1ccncc1)C1COc2cc(-c3cc(=O)c4ccccc4o3)ccc2O1 (stereo not drawn) | > 100 µM (inactive) | > 100 µM (inactive) |  | > 100 µM (inactive) | > 100 µM (inactive) | > 100 µM (inactive) | > 100 µM (inactive) |  | 
